Measured values reported in US4588750A, “Therapeutic compositions for reducing sebum secretion” (Hoffmann-La Roche Inc., priority 1983, dated 1986).

Legend:
[1] = test system: sebaceous glands (flank organs); assay: Inhibition of testosterone propionate-stimulated flank organ weight increase in castrated male hamsters (Table II); assay type: in vivo
Protocol: The effect of the (E) form of the compound of formula I on sebaceous glands in mammals was further determined using hamsters, according to the following procedure. […] Animals were treated for 14 days and the response was measured by weight changes in flank organs removed at autopsy. Separate groups of hamsters served as vehicle controls and testosterone alone groups. Activity was measured by inhibition of the increase in weight which occurs in response to stimulation with testosterone propionate.

[2] = Skin irritation, topical application to the ears; assay type: in vivo, Charles River CD-1 mice; conditions: topically in 25 μl/day acetone, doses up to 100 μg/day, 7 consecutive days
Protocol: 1,2,3,4-tetrahydro-1,1,4,4-tetramethyl-6-[(E)-α-methylstyryl]naphthalene was applied topically to the ears of 21-day-old male Charles River CD-1 mice for 7 consecutive days in 25 μl/day acetone. During treatment mice are observed for development of erythema on the ears, and uniform skin punches are taken at autopsy on day 8. Wet and dry weights of the skin samples were determined and compared to weights from vehicle-treated control animals. Increases in fluid content of the skin punches served as a measure of edema when irritation and inflammation had occurred.

[3] = General tolerability statement; assay type: in vivo; conditions: pharmacologically suitable dosages
[4] = test system: sebum secretion; assay: Inhibition of testosterone propionate-stimulated sebum secretion in castrated male rats (Table I); assay type: in vivo; conditions: for Mean ± S.E. "Sebum" / % Inhibition of testosterone-stimulated increase in "sebum": 14 days
Protocol: The effect of the (E) form of the compound of formula I on sebum secretion in mammals, such as rats, was determined according to the following procedure. Male rats weighing about 50-60 g. were castrated at the age of 21-22 days. One week after surgery, the rats were washed in a detergent solution to remove "sebum" which was secreted prior to the test period. One group of rats were treated only with the carrier vehicles employed. Another group of rats received only testosterone propionate in sesame oil, 100 ug/0.2 ml/rat/day […]. Other groups of rats were given testosterone propionate in sesame oil (100 ug/0.2 ml/rat/day subcutaneously) and 1,2,3,4-tetrahydro-1,1,4,4-tetramethyl-6-[(E)-α-methylstyryl]naphthalene, with different amounts of 1,2,3,4-tetrahydro-1,1,4,4-tetramethyl-6[(E)-α-methylstyryl]naphthalene being administered to each of the other groups orally in 0.2 ml/rat/day propylene glycol. The rats were treated with the compounds for 14 days. On the 15th day total body immersion in a fixed volume of acetone with mixing for two minutes removed surface "sebum" from skin and fur. An aliquot of the solvent bath was dried and the solid residue was measured gravimetrically. Inhibition of the testosterone-stimulated increase in "sebum" over solely testosterone propionate stimulated rats was used as the parameter of response.

[5] = Hypervitaminosis A test; parameters: species or system mice; conditions: mouse, in vivo
Protocol: A hypervitaminosis A test was carried out on mice weighing 25-27 g. which received i.p. injections of 1,2,3,4-tetrahydro-1,1,4,4-tetramethyl-6-[(E)-α-methylstyryl]naphthalene in arachis oil over a 14 day period. Hypervitaminosis A is defined as being that condition of the animals where the symptoms (weight loss, skin desquamtion, loss of hair, bone fractures of extremities) added up to at least 3, c.f. W. Bollag, Cancer, 1974, 10, 731.

[6] = test system: abdominal sebaceous gland pad organs; assay: Inhibition of testosterone-stimulated abdominal sebaceous gland pad weight increase in castrated male gerbils (Table III); assay type: in vivo
Protocol: The effect of the (E) form of the compound of formula I on sebaceous glands in mammals was further determined using gerbils, according to the following procedure. Male gerbils were castrated at 8 weeks of age and one week after surgery were treated with 5 ug free testosterone and 1,2,3,4-tetrahydro-1,1,4,4-tetramethyl-6-[(E)-α-methylstyryl]naphthalene topically in acetone on the abdominal sebaceous gland pad organs. Animals were treated for 14 days and the response was measured by weight changes in these organs removed at autopsy. Separate groups of gerbils served as vehicle controls and testosterone alone groups. Activity was measured by inhibition of the increase in weight which occurs in response to stimulation with testosterone.

[7] = test system: papilloma; conditions: cited from earlier work
[8] = Teratogenicity tests, for fetal abnormalities; assay type: in vivo, Charles River CD rats; conditions: 10, 50 or 150 mg/kg daily orally, gestation days 8 and 9
Protocol: In order to further determine the safety of the (E) form of the compound of formula I teratogenicity tests, for fetal abnormalities, were carried out in rats according to the following procedure. 1,2,3,4-tetrahydro-1,1,4,4-tetramethyl-6-[(E)-α-methylstyryl]naphthalene was provided to Charles River CD rats on gestation days 8 and 9 using a daily dose of 10 , 50 or 150 mg/kg of this substance dissolved or suspended in a polyethelene glycol formulation containing traces of antioxidants (ascorbyl palmitate and butylated hydroxyanisole). The compound was administered orally at a constant volume of 5 ml/kg. The rats were then sacrificed on gestation day 20 and examined.

## C/C(=C\c1ccccc1)c1ccc2c(c1)C(C)(C)CCC2(C)C [1,2,3,4-tetrahydro-1,1,4,4-tetramethyl-6-[(E)-α-methylstyryl]naphthalene]
[1]; 0.5 μg topically + T.P. 5 ug, 14 days, 9 hamsters
  % Inhibition of testosterone-stimulated increase in flank organ weight: 38%
[1]; 0.5 μg topically + T.P. 5 ug, 14 days, 9 hamsters, p<.001 vs T.P. alone
  Mean ± S.E. Flank Organ: 26.0 ± 1.6 mg
[1]; 0.5 ug/animal/day topically with 5 μg T.P., vs testosterone alone
  inhibition of flank organ weight increase: ~38%
[2]
  adverse effects (skin irritation: erythema, edema of ear skin punches): not to have adverse effects
[3]
  tolerability: well tolerated without toxic symptoms
[4]; 0.5 ug/rat/day p.o. + T.P. 100 ug/rat/day s.c., 8 rats, NS vs T.P. alone
  Mean ± S.E. "Sebum": 25.1 ± 1.9 ug/100 ul
[4]; 1 ug/rat/day p.o. + T.P. 100 ug/rat/day s.c., 8 rats, NS vs T.P. alone
  Mean ± S.E. "Sebum": 26.8 ± 1.6 ug/100 ul
[4]; 2 ug/rat/day p.o. + T.P. 100 ug/rat/day s.c., 8 rats, NS vs T.P. alone
  Mean ± S.E. "Sebum": 22.1 ± 1.2 ug/100 ul
[4]; 4 ug/rat/day p.o. + T.P. 100 ug/rat/day s.c., 8 rats, NS vs T.P. alone
  Mean ± S.E. "Sebum": 21.6 ± 1.6 ug/100 ul
[4]; 10 ug/rat/day p.o. + T.P. 100 ug/rat/day s.c.
  % Inhibition of testosterone-stimulated increase in "sebum": 61%
[4]; 10 ug/rat/day p.o. + T.P. 100 ug/rat/day s.c., 9 rats, p<.01 vs T.P. alone
  Mean ± S.E. "Sebum": 23.4 ± 1.6 ug/100 ul
[4]; 20 ug/rat/day p.o. + T.P. 100 ug/rat/day s.c.
  % Inhibition of testosterone-stimulated increase in "sebum": 70%
[4]; 20 ug/rat/day p.o. + T.P. 100 ug/rat/day s.c., 9 rats, p<.01 vs T.P. alone
  Mean ± S.E. "Sebum": 22.4 ± 1.6 ug/100 ul
[4]; 40 ug/rat/day p.o. + T.P. 100 ug/rat/day s.c.
  % Inhibition of testosterone-stimulated increase in "sebum": 73%
[4]; 40 ug/rat/day p.o. + T.P. 100 ug/rat/day s.c., 9 rats, p<.001 vs T.P. alone
  Mean ± S.E. "Sebum": 22.1 ± 0.9 ug/100 ul
[4]; 100 ug/rat/day p.o. + T.P. 100 ug/rat/day s.c.
  % Inhibition of testosterone-stimulated increase in "sebum": 93%
[4]; 100 ug/rat/day p.o. + T.P. 100 ug/rat/day s.c., 9 rats, p<.001 vs T.P. alone
  Mean ± S.E. "Sebum": 19.9 ± 1.2 ug/100 ul
[4]; 100 ug/rat/day p.o. + T.P. 100 ug/rat/day s.c., compared to T.P. alone
  sebum secretion (in words): decreased to virtually normal level
[5]
  undesired side effects such as hypervitaminosis: no undesired side effects such as hypervitaminosis
[5]; ip, i.p. in arachis oil, 14 day period, hypervitaminosis A = symptoms adding up to at least 3, read-out: dosage not resulting in hypervitaminosis A (tested up to)
  NOAEL at 336 h: > 400 mg/kg
[6]; 1 ug topically + testosterone 5 ug, 14 days, 10 gerbils
  % Inhibition of testosterone-stimulated increase in sebaceous gland pad weight: 54%
[6]; 1 ug topically + testosterone 5 ug, 14 days, 10 gerbils, p<.01 vs testosterone alone
  Mean ± S.E. Sebaceous Gland Pad: 45.6 ± 6.9 mg
[6]; 1.0 ug/animal/day p.o. (so in the source) with 5 ug testosterone topically, vs testosterone alone
  inhibition of sebaceous gland pad weight: ~54%
[7]; Loeliger et al., Eur. J. Med. Chem., 15, 9 (1980)
  effect on papilloma growth: no effect on papilloma growth
[7]; after intraperitoneal administration, Loeliger et al. (1980)
  papilloma size: increase in papilloma size
[8]; 187 fetuses
  external malformations: no external malformations were recorded in any of the 187 fetuses
[8]; examined day 20
  absorption rate: no adverse effects
  fetal weight: no adverse effects
  maternal body weights: no adverse effects

## CCC(=O)O[C@H]1CC[C@H]2[C@@H]3CCC4=CC(=O)CC[C@]4(C)[C@H]3CC[C@]12C [T.P., testosterone propionate, reference compound]
[1]; T.P. alone, 5 ug, 14 days, 8 hamsters
  Mean ± S.E. Flank Organ: 33.8 ± 2.0 mg
[4]; 100 ug/rat/day s.c. T.P. alone (0 ug compound), 8 rats, first experiment
  Mean ± S.E. "Sebum": 25.1 ± 1.4 ug/100 ul
[4]; 100 ug/rat/day s.c. T.P. alone (0 ug compound), 9 rats, second experiment
  Mean ± S.E. "Sebum": 30.1 ± 1.0 ug/100 ul

## C[C@]12CC[C@H]3[C@@H](CCC4=CC(=O)CC[C@@]43C)[C@@H]1CC[C@@H]2O [Testosterone, testosterone, reference compound]
[6]; Testosterone alone, 5 ug, 14 days, 10 gerbils
  Mean ± S.E. Sebaceous Gland Pad: 72.5 ± 5.8 mg
